Assay results taken from patent publication US10167262B2, “Herbicidal substituted 3-arylpyrazoles” (FMC CORPORATION, priority 2014, dated 2019).

What was measured:
Assay type in all cases: in vivo
wild oat (Avena fatua) = assay: Test C postemergence greenhouse test, plant response rating 0-100; conditions: Avena fatua, post-emergence
Method in brief: (§1)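 Potted in peat/vermiculite mix; postemergence application at 1–4 leaves (2–18 cm); greenhouse 13–15 d; visual score 0–100 relative to untreated plants; dash = no test result.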

kochia (Kochia scoparia) = assay: as above; conditions: Bassia scoparia, post-emergence
Method in brief: as §1

[1] = tested on: chickweed (common chickweed, Stellaria media); assay: as above; conditions: Stellaria media, post-emergence
Method in brief: as §1

[2] = tested on: galium (catchweed bedstraw, Galium aparine); assay: Test C pre-/postemergence greenhouse test, plant response rating 0-100; conditions: Galium, post-emergence, Postemergence
Method in brief: (§2)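 Two application timings: preemergence onto seeded loam/sand soil and postemergence onto plants at the 1–4 leaf stage (2–18 cm) in peat/vermiculite medium. Formulation: non-phytotoxic solvent with surfactant. Read-out: visual control rating, 0–100, at 13–15 days after treatment.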

[3] = tested on: ragweed (common ragweed, Ambrosia elatior); assay: as above; conditions: Ambrosia artemisiifolia, post-emergence, Postemergence
Method in brief: as §2

[4] = tested on: pigweed (Amaranthus retroflexus); assay: as above; conditions: Amaranthus retroflexus, post-emergence, Postemergence
Method in brief: as §2

[5] = tested on: large (Lg) crabgrass (Digitaria sanguinalis); assay: as above; conditions: Digitaria sanguinalis, post-emergence, Postemergence
Method in brief: as §2

[6] = tested on: winter wheat (Triticum aestivum); assay: as above; conditions: Triticum aestivum, post-emergence, Postemergence
Method in brief: as §2

[7] = tested on: blackgrass (Alopecurus myosuroides); assay: as above; conditions: Alopecurus myosuroides, post-emergence, Postemergence
Method in brief: as §2

[8] = tested on: yellow nutsedge (Cyperus esculentus); assay: as above; conditions: Cyperus, post-emergence, Postemergence
Method in brief: as §2

[9] = tested on: Italian ryegrass (Lolium multiflorum); assay: as above; conditions: Lolium multiflorum, post-emergence, Postemergence
Method in brief: as §2

[10] = tested on: giant foxtail (Setaria faberii); assay: as above; conditions: Setaria faberi, post-emergence, Postemergence
Method in brief: as §2

corn (Zea mays) = assay: as above; conditions: Zea mays, post-emergence, Postemergence
Method in brief: as §2

soybean (Glycine max) = assay: as above; conditions: Glycine max, post-emergence, Postemergence
Method in brief: as §2

CCn1cc(C(=O)c2ccccc2)c(-c2cc(Cl)cc(Cl)c2)n1 [Compound 31, [3-(3,5-dichlorophenyl)-1-ethyl-1H-pyrazol-4-yl]phenylmethanone]
40%: pest or weed control at 62 g/ha (kochia (Kochia scoparia); 62 g ai/ha) | pest or weed control at 125 g/ha (kochia (Kochia scoparia); 125 g ai/ha)
70%: pest or weed control at 31 g/ha ([1]; 31 g ai/ha)
5%: pest or weed control at 16 g/ha (kochia (Kochia scoparia); 16 g ai/ha) | pest or weed control at 125 g/ha ([2]; 125 g ai/ha, read-out: Plant response rating (0 to 100), Galium) | pest or weed control at 125 g/ha ([3]; 125 g ai/ha, read-out: Plant response rating (0 to 100), Ragweed) | pest or weed control at 16 g/ha ([5]; 16 g ai/ha) | pest or weed control at 31 g/ha ([5]; 31 g ai/ha, read-out: Plant response rating (0 to 100), Crabgrass, Large) | pest or weed control at 62 g/ha ([5]; 62 g ai/ha, read-out: Plant response rating (0 to 100), Crabgrass, Large) | pest or weed control at 125 g/ha ([5]; 125 g ai/ha, read-out: Plant response rating (0 to 100), Crabgrass, Large) | pest or weed control at 62 g/ha ([8]; 62 g ai/ha, read-out: Plant response rating (0 to 100), Nutsedge, Yellow) | pest or weed control at 125 g/ha ([8]; 125 g ai/ha, read-out: Plant response rating (0 to 100), Nutsedge, Yellow) | pest or weed control at 16 g/ha ([10]; 16 g ai/ha) | pest or weed control at 31 g/ha ([10]; 31 g ai/ha, read-out: Plant response rating (0 to 100), Foxtail, Giant) | pest or weed control at 62 g/ha ([10]; 62 g ai/ha, read-out: Plant response rating (0 to 100), Foxtail, Giant) | pest or weed control at 125 g/ha ([10]; 125 g ai/ha, read-out: Plant response rating (0 to 100), Foxtail, Giant) | plant injury at 125 g/ha (soybean (Glycine max); 125 g ai/ha, read-out: Plant response rating (0 to 100), Soybean)
0%: pest or weed control at 16 g/ha (wild oat (Avena fatua); 16 g ai/ha) | pest or weed control at 62 g/ha (wild oat (Avena fatua); 62 g ai/ha) | pest or weed control at 125 g/ha (wild oat (Avena fatua); 125 g ai/ha) | pest or weed control at 16 g/ha ([2]; 16 g ai/ha) | pest or weed control at 31 g/ha ([2]; 31 g ai/ha, read-out: Plant response rating (0 to 100), Galium) | pest or weed control at 62 g/ha ([2]; 62 g ai/ha, read-out: Plant response rating (0 to 100), Galium) | pest or weed control at 16 g/ha ([3]; 16 g ai/ha) | pest or weed control at 62 g/ha ([3]; 62 g ai/ha, read-out: Plant response rating (0 to 100), Ragweed) | plant injury at 16 g/ha ([6]; 16 g ai/ha) | plant injury at 62 g/ha ([6]; 62 g ai/ha, read-out: Plant response rating (0 to 100), Wheat) | plant injury at 125 g/ha ([6]; 125 g ai/ha, read-out: Plant response rating (0 to 100), Wheat) | pest or weed control at 16 g/ha ([7]; 16 g ai/ha) | pest or weed control at 31 g/ha ([7]; 31 g ai/ha, read-out: Plant response rating (0 to 100), Blackgrass) | pest or weed control at 62 g/ha ([7]; 62 g ai/ha, read-out: Plant response rating (0 to 100), Blackgrass) | pest or weed control at 125 g/ha ([7]; 125 g ai/ha, read-out: Plant response rating (0 to 100), Blackgrass) | pest or weed control at 16 g/ha ([8]; 16 g ai/ha) | pest or weed control at 16 g/ha ([9]; 16 g ai/ha) | pest or weed control at 62 g/ha ([9]; 62 g ai/ha, read-out: Plant response rating (0 to 100), Ryegrass, Italian) | pest or weed control at 125 g/ha ([9]; 125 g ai/ha, read-out: Plant response rating (0 to 100), Ryegrass, Italian) | Corn plant response rating (crop injury, 0 = no effect, 100 = complete kill) at 16 g/ha (corn (Zea mays); 16 g ai/ha) | plant injury at 31 g/ha (corn (Zea mays); 31 g ai/ha) | plant injury at 62 g/ha (corn (Zea mays); 62 g ai/ha) | plant injury at 125 g/ha (corn (Zea mays); 125 g ai/ha) | plant injury at 16 g/ha (soybean (Glycine max); 16 g ai/ha) | plant injury at 62 g/ha (soybean (Glycine max); 62 g ai/ha, read-out: Plant response rating (0 to 100), Soybean)
75%: pest or weed control at 62 g/ha ([1]; 62 g ai/ha) | pest or weed control at 125 g/ha ([4]; 125 g ai/ha, read-out: Plant response rating (0 to 100), Pigweed)
10%: pest or weed control at 16 g/ha ([1]; 16 g ai/ha)
20%: pest or weed control at 16 g/ha ([4]; 16 g ai/ha)
80%: pest or weed control at 125 g/ha ([1]; 125 g ai/ha)
